In article PMC12454639, “Direct disassembly of α-syn preformed fibrils into α-syn monomers by an all-D-peptide” (NPJ Parkinson's Disease, 2025):
Square brackets hold non-standard residues; d marks the D form. Peptide text beside a SMILES is read from it.

Tests used:
[1] = tested on: α-synA53T–YFP cells (HEK293T)
small α-syn PFF seeds = test: AFM analysis of small α-syn PFF seeds; format: biochemical; details: 400 and 1600 nM SVD-1a, 3 days at 37 °C, PBS pH 7.4
Procedure: Fig. 4 SVD-1a disassembles small α-syn PFF seeds into α-syn monomers. Small α-syn PFF seeds were prepared as described previously. […] A and B Time-dependent DLS measurements with 200 nM small α-syn PFF seeds in the absence (A) and presence (B) of 500 nM SVD-1a. 1 ml sample was continuously measured in a sealed quartz cuvette at 37 °C under quiescent conditions every 60 s for 72 h in a SpectroSize 300 instrument (XtalConcepts, GE). Data are shown as a radius plot where the signal amplitude of each particle size is represented by the data point diameter. C One-phase exponential decay fit of “200 nM PFF + 500 nM SVD-1a” shown in (B). […] PFF and monomer samples that were incubated without SVD-1a served as controls. α-Syn was detected with the antibody Syn211. […] In the upper part of the blot, above the marker range, PFFs were detected, using a longer exposure time due to a weaker signal (see Supplementary Fig. 11 for the whole blot image with different exposure times). F Size-based fractionation by centrifugal concentration followed by ELISA quantification. […] After incubation, the samples were fractioned using a 100 kDa MWCO centrifugal concentrator (Merck, Microcon DNA Fast Flow 100 MWCO). α-Syn content of flow through (red) and retentate (blue) was quantified using an α-syn specific ELISA (BioLegend, Human α-Synuclein (Colorimetric), 448607). […]

α-syn monomer = test: AFM of de novo aggregation endpoint samples; format: biochemical; details: 10 µM α-syn + 20 µM SVD-1a
Procedure: Fig. 7 De novo aggregation analysis of α-syn in the presence and absence of SVD-1a. A De novo ThT assay of 10 µM α-syn with and without 20 µM SVD-1a. ThT fluorescence progression was measured in a 96-well non-binding half-area plate (Corning, USA) with a FLUOStar plate reader (BMG labtech, GE) at λex = 448 nm and λem = 482 nm with 300 rpm continuous orbital shaking between reads. For induction of aggregation, one borosilicate bead per well was added (d = 3 mm, Hilgenberg, GE). Data are shown as mean values with ±SD (n = 5). B CD secondary structure analysis of de novo aggregation samples. Samples were incubated as described in (A) without added ThT (n = 3) and subsequently pooled for CD analysis. Far-UV ellipticity of the samples was measured in a quartz cuvette (l = 10 mm) in a J-1100 CD-spectrometer (Jasco, GE). In addition to (A), a sample with 20 µM SVD-1a alone was incubated under identical conditions and later used as a reference for the sample with α-syn and SVD-1a. For this sample (α-syn + SVD-1a (after incubation)), the SVD-1a reference subtracted CD spectrum is shown. […] D α-Syn in the flow through (MWCO < 100 kDa) was quantified using an α-syn specific ELISA (BioLegend, Human α-Synuclein (Colorimetric), 448607, n = 3). E Retentate and flow-through samples were analyzed using SDS–PAGE with silver staining. […]

Solubility of D-peptides = details: PBS pH 7.4, 1 h at 37 °C, 20,800×g centrifugation, UV–vis absorption; lyophilized chloride salt

| concentration completely retained in supernatant (Solubility of D-peptides) | SMILES | cell viability, PFF-seeded α-synA53T–YFP cells [1] | small α-syn PFF particle number (small α-syn PFF seeds) | fibrils in endpoint samples (AFM) (α-syn monomer) |
| --- | --- | --- | --- | --- |
| – | CC[C@@H](C)[C@@H](NC(=O)[C@@H](Cc1c[nH]cn1)NC(=O)[C@@H](CCC(=O)O)NC(=O)[C@@H](CCC(N)=O)NC(=O)[C@@H](Cc1c[nH]c2ccccc12)NC(=O)[C@@H](Cc1ccc(O)cc1)NC(=O)[C@H](NC(=O)[C@@H](CCC(=O)O)NC(=O)[C@@H](Cc1c[nH]cn1)NC(=O)[C@H](NC(=O)[C@H]1CCCN1C(=O)[C@@H](CC(C)C)NC(=O)[C@H](N)CCCNC(=N)N)[C@H](C)O)[C@H](C)O)C(=O)N[C@H](Cc1c[nH]c2ccccc12)C(=O)N[C@H](Cc1c[nH]cn1)C(=O)N[C@H](C)C(=O)N[C@H](CCCNC(=N)N)C(=O)N[C@H](CCCNC(=N)N)C(=O)N[C@H](CCCNC(=N)N)C(=O)N[C@H](CCCNC(=N)N)C(=O)N[C@H](CCCNC(=N)N)C(N)=O [SVD-1a] (H-[dR][dL][dP][dT][dH][dE][dT][dY][dW][dQ][dE][dH][dI][dW][dH][dA][dR][dR][dR][dR][dR]-NH2) | did not induce significantly different luminescence in comparison to unseeded cells or seeded cells without peptide treatment | decrease in small α-syn PFF particle number | clearly do not contain any fibrils |
| at least 1 mM | CC[C@@H](C)[C@@H](NC(=O)[C@@H](Cc1c[nH]cn1)NC(=O)[C@@H](CCC(=O)O)NC(=O)[C@@H](CCC(N)=O)NC(=O)[C@@H](Cc1c[nH]c2ccccc12)NC(=O)[C@@H](Cc1ccc(O)cc1)NC(=O)[C@H](NC(=O)[C@@H](CCC(=O)O)NC(=O)[C@@H](Cc1c[nH]cn1)NC(=O)[C@H](NC(=O)[C@H]1CCCN1C(=O)[C@@H](CCSC)NC(=O)[C@H](N)CCCCN)[C@H](C)O)[C@H](C)O)C(=O)N[C@H](Cc1c[nH]c2ccccc12)C(=O)N[C@H](Cc1c[nH]cn1)C(=O)N[C@H](C)C(N)=O [SVD-1] (H-[dK][dM][dP][dT][dH][dE][dT][dY][dW][dQ][dE][dH][dI][dW][dH][dA]-NH2) | – | – | – |
